The values that follow come from patent US12208110B2 (priority 2020, dated 2025).

Holding throughout (assay type): cell-based
For one data set, the system named is SARS-CoV-2. The experiment in a line: microbe, parasite or virus in culture. To be noted: Severe acute respiratory syndrome coronavirus 2, 48 h.
Data set [1] can be described thus: MT4 cytotoxicity analysis (CellTiter-Glo). The following applies: human, MT4 CC50 (nM). As to the method: Example 79: MT4 Cytotoxicity Analysis
3-fold serially diluted compound in DMSO, ranging from 2.5 uM to 10 mM, were added by acoustic transfer (Echo) in quadruplicate into black 384-well plates at 200 nl/well. After compound addition, 40 ul MT-4 cells at 80,000/ml were added to each well using a MicroFlo liquid dispenser (BioTek, Winooski, VT) and the cells were cultured for five days at 37° C. Following the incubation, cell viability was determined by adding 35 μL of CellTiter-Glo viability reagent and mixed thoroughly using ViaFlo 384 well workstation. The mixture was incubated for at least 10 minutes at 25° C., and the luminescence signal was quantified on an EnVision plate reader.
Background: ATP-based viability assays read luminescence as a measure of living cells.

The subject of data set [2] is RSV-Fluc (Recombinant Respiratory Syncytial virus strain A2 containing the firefly luciferase reporter). The experiment in a line: microbe, parasite or virus in culture. To be noted: human respiratory syncytial virus, NHBE, 72 h, read-out: RSV-Fluc EC50 (nM, NHBE).

Regarding `CCCCCCCCCCCCCCCCCCOC[C@H](COP(=O)(O)OC[C@H]1O[C@@](C#N)(c2ccc3c(N)ncnn23)[C@H](O)[C@@H]1O)N1Cc2ccccc2C1` [Example 1, ((2R,3S,4R,5R)-5-(4-aminopyrrolo[2,1-f][1,2,4]triazin-7-yl)-5-cyano-3,4-dihydroxytetrahydrofuran-2-yl)methyl ((R)-2-(isoindolin-2-yl)-3-(octadecyloxy)propyl) hydrogen phosphate], the EC50 worked out at 3200 nM with SARS-CoV-2 and 570 nM in data set [2]. The compound further came in with a CC50 at 5 days in data set [1] of 20000 nM.

As for `CCCCCCCCCCCCCCCCCCOC[C@H](COP(=O)(O)OC[C@H]1O[C@@](C#N)(c2ccc3c(N)ncnn23)[C@H](O)[C@@H]1O)N(C)Cc1ccccc1` [Example 2, ((2R,3S,4R,5R)-5-(4-aminopyrrolo[2,1-f][1,2,4]triazin-7-yl)-5-cyano-3,4-dihydroxytetrahydrofuran-2-yl)methyl ((R)-2-(benzyl(methyl)amino)-3-(octadecyloxy)propyl) hydrogen phosphate], the EC50 with SARS-CoV-2 came to 10000 nM; in data set [2], 5000 nM. The compound also showed a CC50 at 5 days in data set [1] of 25000 nM.

For `CCCCCCCCCCCCCCCCCCOC[C@H](COP(=O)(O)OC[C@H]1O[C@@](C#N)(c2ccc3c(N)ncnn23)[C@H](O)[C@@H]1O)N(C)C(=O)c1ccc(F)c(Cl)c1` [Example 4, ((2R,3S,4R,5R)-5-(4-aminopyrrolo[2,1-f][1,2,4]triazin-7-yl)-5-cyano-3,4-dihydroxytetrahydrofuran-2-yl)methyl ((R)-2-(3-chloro-4-fluoro-N-methylbenzamido)-3-(octadecyloxy)propyl) hydrogen phosphate], the figures for the EC50 (in the data set with SARS-CoV-2; in data set [2]) were 9400 nM and 540 nM, respectively. For the same compound, the CC50 at 5 days in data set [1] is 13000 nM.

With `CCCCCCCCCCCCCCCCCCO[C@@H](C)[C@H](COP(=O)(O)OC[C@H]1O[C@@](C#N)(c2ccc3c(N)ncnn23)[C@H](O)[C@@H]1O)OCc1ccccc1` [Example 5, ((2R,3S,4R,5R)-5-(4-aminopyrrolo[2,1-f][1,2,4]triazin-7-yl)-5-cyano-3,4-dihydroxytetrahydrofuran-2-yl)methyl ((2S,3S)-2-(benzyloxy)-3-(octadecyloxy)butyl) hydrogen phosphate], the EC50 in the data set on SARS-CoV-2 was 2500 nM; in data set [2] it was 50 nM. The CC50 at 5 days in data set [1] came to 3400 nM.

As to `CCCCCCCCCCCCCCCCCCOC[C@H](COP(=O)(O)OC[C@H]1O[C@@](C#N)(c2ccc3c(N)ncnn23)[C@H](O)[C@@H]1O)SCc1ccccc1` [Example 7, ((2R,3S,4R,5R)-5-(4-aminopyrrolo[2,1-f][1,2,4]triazin-7-yl)-5-cyano-3,4-dihydroxytetrahydrofuran-2-yl)methyl ((R)-2-(benzylthio)-3-(octadecyloxy)propyl) hydrogen phosphate], the EC50 amounted to 10000 nM with SARS-CoV-2 and 360 nM in data set [2]. The CC50 at 5 days in data set [1] worked out at 39000 nM.

As to `CCCCCCCCCCCCCCCCCCO[C@H](C)[C@H](COP(=O)(O)OC[C@H]1O[C@@](C#N)(c2ccc3c(N)ncnn23)[C@H](O)[C@@H]1O)OCc1ccccc1` [Example 8, ((2R,3S,4R,5R)-5-(4-aminopyrrolo[2,1-f][1,2,4]triazin-7-yl)-5-cyano-3,4-dihydroxytetrahydrofuran-2-yl)methyl ((2S,3R)-2-(benzyloxy)-3-(octadecyloxy)butyl) hydrogen phosphate], the EC50 came out at 2900 nM with SARS-CoV-2 and 160 nM in data set [2]. Also, half-maximal cytotoxicity in data set [1] (CC50 at 5 days) was put at 1800 nM.

Consider `CCCCCCCCCCCCCCCCCCOC[C@H](COP(=O)(O)OC[C@H]1O[C@@](C#N)(c2ccc3c(N)ncnn23)[C@H](O)[C@@H]1O)N1Cc2cc(Cl)c(Cl)cc2C1` [Example 9, ((2R,3S,4R,5R)-5-(4-aminopyrrolo[2,1-f][1,2,4]triazin-7-yl)-5-cyano-3,4-dihydroxytetrahydrofuran-2-yl)methyl ((R)-2-(5,6-dichloroisoindolin-2-yl)-3-(octadecyloxy)propyl) hydrogen phosphate], for which the results for the half-maximal effective concentration (EC50) (in the data set on SARS-CoV-2; in data set [2]) were 9000 nM and 490 nM, respectively. In data set [1], this compound had a half-maximal cytotoxic concentration (CC50) at 5 days of 20000 nM.

`CCCCCCCCCCCCCCCCCCOC[C@H](COP(=O)(O)OC[C@H]1O[C@@](C#N)(c2ccc3c(N)ncnn23)[C@H](O)[C@@H]1O)NC(=O)c1ccccc1C(=O)O` [Example 14, 2-(((2R)-1-(((((2R,3S,4R,5R)-5-(4-aminopyrrolo[2,1-f][1,2,4]triazin-7-yl)-5-cyano-3,4-dihydroxytetrahydrofuran-2-yl)methoxy)(hydroxy)phosphoryl)oxy)-3-(octadecyloxy)propan-2-yl)carbamoyl)benzoic acid]: the values for the EC50 (with SARS-CoV-2; in data set [2]) were 700 nM and 53 nM, respectively. Further, half-maximal cytotoxicity in data set [1] (CC50 at 5 days) was put at 26000 nM.

As to `CCCCCCCCCCCCCCCCCCOC[C@H](COP(=O)(O)OC[C@H]1O[C@@](C#N)(c2ccc3c(N)ncnn23)[C@H](O)[C@@H]1O)N1C(=O)c2ccccc2C1=O` [Example 15, ((2R,3S,4R,5R)-5-(4-aminopyrrolo[2,1-f][1,2,4]triazin-7-yl)-5-cyano-3,4-dihydroxytetrahydrofuran-2-yl)methyl ((R)-2-(1,3-dioxoisoindolin-2-yl)-3-(octadecyloxy)propyl) hydrogen phosphate], the concentration for a half-maximal effect (EC50) in the data set with SARS-CoV-2 is 2500 nM; in data set [2], 140 nM. The same compound gave a CC50 at 5 days in data set [1] of 35000 nM.

With `CCCCCCCCCCCCCCCCCCOC[C@H](COP(=O)(O)OC[C@H]1O[C@@](C#N)(c2ccc3c(N)ncnn23)[C@H](O)[C@@H]1O)Nc1cccc(C#N)c1` [Example 16, ((2R,3S,4R,5R)-5-(4-aminopyrrolo[2,1-f][1,2,4]triazin-7-yl)-5-cyano-3,4-dihydroxytetrahydrofuran-2-yl)methyl ((R)-2-((3-cyanophenyl)amino)-3-(octadecyloxy)propyl) hydrogen phosphate], the EC50 in the data set on SARS-CoV-2 worked out at 1100 nM; in data set [2], 100 nM. Also, the midpoint of cytotoxicity in data set [1], the CC50 at 5 days, lay at 1900 nM.

As to `CCCCCCCCCCCCCCCCCCOC[C@H](COP(=O)(O)OC[C@H]1O[C@@](C#N)(c2ccc3c(N)ncnn23)[C@H](O)[C@@H]1O)OCc1cc(C#N)c(Cl)c(OC)c1` [Example 54, ((2R,3S,4R,5R)-5-(4-aminopyrrolo[2,1-f][1,2,4]triazin-7-yl)-5-cyano-3,4-dihydroxytetrahydrofuran-2-yl)methyl ((R)-2-((4-chloro-3-cyano-5-methoxybenzyl)oxy)-3-(octadecyloxy)propyl) hydrogen phosphate], in data set [1], the CC50 at 5 days is 1300 nM. In addition, in data set [2], the EC50 worked out at 64 nM.

On to `CCCCCCCCCCCCCCCCCCN(C)C(=O)[C@H](COP(=O)(O)OC[C@H]1O[C@@](C#N)(c2ccc3c(N)ncnn23)[C@H](O)[C@@H]1O)OCc1cc(F)cc(C#N)c1` [Example 56, ((2R,3S,4R,5R)-5-(4-aminopyrrolo[2,1-f][1,2,4]triazin-7-yl)-5-cyano-3,4-dihydroxytetrahydrofuran-2-yl)methyl ((S)-2-((3-cyano-5-fluorobenzyl)oxy)-3-(methyl(octadecyl)amino)-3-oxopropyl) hydrogen phosphate], for which the CC50 at 5 days in data set [1] is 200 nM. The EC50 in data set [2] came to 13 nM.

The term EC50 denotes the concentration giving half of the maximal effect. The term CC50 denotes the concentration that lowers cell viability or growth by half. Read a low CC50 as harm at low concentration.
